# From patent publication US7358046B2, “Sensitivity test to predict efficacy of anti-cancer therapies” (Canbas Co., Ltd., priority 2003, dated 2008)
# Entries after “also recorded” stand apart in the source; their conditions may differ. Non-standard residues stand in square brackets, D forms with d. No end group written: not given here. dPhe(F5) = N[C@H](Cc1c(F)c(F)c(F)c(F)c1F)C(=O)O; dBpa = N[C@H](Cc1ccc(C(=O)c2ccccc2)cc1)C(=O)O; dCha = N[C@H](CC1CCCCC1)C(=O)O
# Assays:
# [1] = test system: HCT-116 cells; test: In vitro sensitivity test: DNA content of cells by flow cytometry; format: cell-based, human; conditions: for change in DNA content (cell cycle distribution) of HCT-116 cells: compound alone, 2, 10, or 50 μM for 3 hr
# Protocol: Cells from a human colon cancer derived cell line HCT-116 were used in an in vitro sensitivity test that measures DNA content of cells by flow cytometry, and in an in vivo efficacy test that measures xenograft tumor growth. The effects of conventional anti-cancer therapy CPT-11, novel candidate anti-cancer therapy CBDC402, a combination of the two compounds, or control treatments (vehicle), were measured in each test system and compared.
# In vitro sensitivity test: HCT-116 cells (from ATCC) were cultured in McCOY5A medium (Sigma Chemical Co.) with L-glutamine (Sigma Chemical Co.), penicillin-streptomycin, and 10% fetal calf serum at 37° C. in 5% CO2/air. Cultured cells (at 1.6×10^5) were pelleted by centrifugation, and then re-suspended and incubated in 300 μl Krishan's solution (0.1% sodium citrate, 50 μg/ml propidium iodide, 20 μg/ml RNase A, 0.5% Nonidet P-40) for 1 h at 4° C. The quantity of DNA in each cell was determined using a fluorescence activated cell scanner (FACScan® Beckton Dickinson, Mountain View, Calif.), and results were analyzed using CELLQuest® software (Beckton Dickinson).
# The DNA content of each cell was measured at 24 hr.
# In vitro sensitivity test: The in vitro sensitivity test using HCT-116 cells and flow cytometry was carried out as described above, with the modification that CBDC004 was used instead of CBDC402. The DNA content of each cell was measured at 24 hr.
# [2] = test system: HCT-116 xenografts; test: Surrogate in vivo efficacy test: HCT-116 xenograft tumor assay; set-up: species or system SCID mice; conditions: for HCT-116 xenograft tumor growth, combination: intraperitoneal, two weeks
# Protocol: HCT-116 cells were implanted by subcutaneous injection of the cells into male SCID mice (Severe Combined Immunodeficient mice, Charles River Lab., Wilmington, Mass.). Treatment was initiated when the tumor size reached about 0.2 cm^3 in size. The size of tumors was measured three times per week, using calipers. Tumor volumes were calculated as follows: volume (cm^3)=[width (mm)^2×length (mm)]/2000. Mean tumor sizes (volumes) with standard deviation were plotted (FIG. 1b). Animals were housed in accordance with guidelines from American Association for Laboratory Animal Care and the protocols were approved by institutional animal care committee of CanBas Co. Ltd
# (§1) Established HCT-116 xenografts (0.2 cm^3) in SCID mice were treated for two weeks by intraperitoneal injection of the following: vehicle alone (DMSO, two times per week), CBDC402 (40 mg/kg; two times per week), CPT-11 (20 mg/kg; one time per week) or the combination of CBDC402 (two times per week) and CPT-11 (one time per week). […] The results correlate with the prediction based on results from the in vitro sensitivity test using CBDC004 as described above.
# Surrogate in vivo efficacy test: A surrogate in vivo efficacy test measuring the effects of various compounds on HCT-116 xenograft tumor growth was carried out as described above, with the modification that CBDC004 was used instead of CBDC402.
# as §1, with “week), CBDC004 (30” for “week), CBDC402 (40”, “mg/kg; three” for “mg/kg; two”
# [3] = test system: MIAPaCa2 cells; test: In vitro sensitivity test: laser scanning cytometry of cultured xenograft tumor cells on chamber slides; conditions: for anti-cancer efficacy in vitro, human cancerous cells in culture: each compound alone (summary of Example 3)
# Protocol: As a simulation of the sensitivity test for the clinical situation, established xenograft tumors of MIAPaCa2 cells in SCID mice were extracted from the mice and cultured in vitro in the presence or absence of a conventional anti-cancer therapy and a novel candidate anti-cancer therapy CBP501 (SEQ ID NO: 26), according to the protocol as follows.
# Xenograft tumors of MIAPaCa2 cells were excised from xenograft tumor bearing mice and place in a 10 cm plate with 10 ml of complete culture medium (DMEM (Dainihonseiyaku Co., Osaka, Japan) with 2.5% horse serum (Invitrogen Co., Carlsbad, Calif.) for MIAPaCa2 with 10% fetal calf serum (Equitech-bio, Kerrville, Tex.) at 37° C. with 5% CO2/air). The tissue was sliced into small pieces and non-tumor tissue was removed to the extent possible. The sliced pieces were placed in another 10 cm plate with complete culture medium and minced with a razor blade. The cells were then dispersed in culture medium by pipetting, and centrifuged for 5 min at 1200×g.
# The cell pellet was then incubated in buffer containing collagenase for 2 hours at 37° C. After centrifuging a second time, the cell pellet was incubated in buffer containing trypsin for 5 min at room temperature, then suspended in the culture medium, passed through nylon mesh, and re-centrifuged. Pelleted cells were resuspended and the resuspended cells were seeded onto chamber slides and cultured overnight in an incubator.
# Cells in chamber slides were treated with anti-cancer therapies or control treatments as follows: control solution, CBP501 (SEQ ID NO: 26) at 10 μM, cisplatin (CDDP) at 10 μg/ml, or a combination of CBP501 and cisplatin were added to chamber slides and incubated for 3 hours. Culture medium was changed and chamber slides were cultured for an additional 24 to 48 hours.
# At the beginning of the designated day (day 3, 4, or 5), medium was aspirated from chamber slides and cells were fixed by addition of 70% ethanol followed by incubation for 15 minutes at room temperature. The supernatant was discarded, and phosphate buffered saline with 50 μg/ml propidium iodide (Sigma, St. Louis, Mo.) with 0.1% RNase (Sigma) was added to the slides and incubated for 30 minutes at room temperature. Cells on the chamber slides were then analyzed by Laser Scanning Cytomery (LSC® System, with Olympus microscope).
# [4] = test system: MIAPaCa2 cells xenograft tumors; test: Surrogate in vivo efficacy test: MIAPaCa2 xenograft tumor assay; set-up: species or system SCID mice
# Protocol: Surrogate in vivo efficacy test: A surrogate in vivo efficacy test using the xenograft tumor assay was carried out as described above, with modifications. MIAPaCa2 cells (n=5) were implanted by subcutaneous injection of the cells to male SCID mice (Charles River Lab., Wilmington, Mass.). Treatment was initiated when tumor size reached about 0.15 cm^3 in size. The size of tumors was measured three times per week, using calipers. Tumor volumes were calculated as follows: volume (cm^3)=[width (mm)^2×length (mm)]/2000. Mean tumor sizes (volumes) with standard deviation were plotted (FIG. 1b). Animals were housed in accordance with guidelines from American Association for Laboratory Animal Care and the protocols were approved by institutional animal care committee of CanBas Co. Ltd.
# Established […] xenografts (0.2 cm^3) in SCID mice were treated two times each week for two weeks (i.e., on day 1, 5, 8, and 12) by intraperitoneal injection of the following: vehicle alone (DMSO); CBP501 (120 mg/m^2); cisplatin (CDDP, 3 mg/kg); a combination of CBP501 (30 mg/m^2) and cisplatin (CDDP, 3 mg/kg); a combination of CBP501 (60 mg/m^2) and cisplatin (CDDP, 3 mg/kg); or CBP501 (120 mg/m^2) and cisplatin (CDDP, 3 mg/kg).
# [5] = compound 2, 10, 50 μM for 3 hr in combination with CPT-11 50 μM for 3 hr, measured at 24 hr
# [6] = CPT-11 alone, 50 μM for 3 h, DNA content measured at 24 hr
# [7] = CBP501 10 μM combined with cisplatin 10 μg/ml, 3 hours, then cultured 24 to 48 hours
molecule,measurement,setting,value
"COc1ccc(OC(=O)c2ccc(Cl)cc2)cc1 [CBDC004, 4-Chloro-benzoic acid 4-methoxy-phenyl ester]","change in DNA content / G2/M and G1 populations of HCT-116 cells, combination treatment",[1]; [5],did not change the DNA content more than CPT-11 alone
same,change in DNA content (cell cycle distribution) of HCT-116 cells,[1]; DNA content measured at 24 hr,did not alter the DNA content
same,HCT-116 xenograft tumor growth,"[2]; CBDC004 alone, 30 mg/kg intraperitoneal, three times per week for two weeks",did not suppress tumor growth
same,"HCT-116 xenograft tumor growth, combination",[2]; CBDC004 in combination with CPT-11 (one time per week),did not suppress tumor growth
"Cc1ccc(OC(=O)c2ccc(Br)cc2)cc1 [CBDC402, 4-Bromo-benzoic acid p-tolyl ester]","change in DNA content / G2/M and G1 populations of HCT-116 cells, combination treatment",[1]; [5],decrease in the accumulation of both the CPT-11-induced G2/M population and G1 population
same,"subG1 (dead cell) population of HCT-116 cells, combination treatment",[1]; [5],increase in the subG1 (dead cell) population
same,change in DNA content (cell cycle distribution) of HCT-116 cells,[1]; DNA content measured at 24 hr,did not alter the DNA content
same,"HCT-116 xenograft tumor growth, combination",[2]; CBDC402 (two times per week) plus CPT-11 (one time per week),strong tumor suppressive activity
same,HCT-116 xenograft tumor growth,"[2]; CBDC402 alone, 40 mg/kg intraperitoneal, two times per week for two weeks",did not suppress tumor growth significantly
"CCc1c2c(nc3ccc(OC(=O)N4CCC(N5CCCCC5)CC4)cc13)-c1cc3c(c(=O)n1C2)COC(=O)[C@]3(O)CC [CPT-11, irinotecan, reference compound]","change in cell cycle distribution (G1, G2/M populations) of HCT-116 cells",[1]; [6],changed the cell cycle distribution dramatically
same,sub-G1 (dead cell) population of HCT-116 cells,[1]; [6],no increase in the sub-G1 population
same,HCT-116 xenograft tumor growth,"[2]; CPT-11 alone, 20 mg/kg intraperitoneal, one time per week for two weeks",moderate tumor suppressive activity
"N.N.[Cl][Pt][Cl] [cisplatin, reference compound]",change in cell cycle distribution of cultured MIAPaCa2 xenograft tumor cells,"[3]; cisplatin alone, 10 μg/ml for 3 hours, then cultured 24 to 48 hours",accumulation of cells in G2/M phase
same,"anti-cancer efficacy in vitro, human cancerous cells in culture",[3],some anti-cancer efficacy
same,xenograft tumor growth,"[4]; cisplatin alone, 3 mg/kg intraperitoneal, two times each week for two weeks",little or no effect on tumor growth
"(d-Bpa)(d-Ser)(d-Trp)(d-Ser)(d-Phe-2,3,4,5,6-F)(d-Cha)(d-Arg)(d-Arg)(d-Arg)(d-Gln)(d-Arg)(d-Arg) ([dBpa][dS][dW][dS][dPhe(F5)][dCha][dR][dR][dR][dQ][dR][dR]) [CBP501]","G1 and G2/M peaks of cultured MIAPaCa2 xenograft tumor cells, combination",[3]; [7],dramatically decreased both the G1 and G2/M peaks
same,"sub-G1 population of cultured MIAPaCa2 xenograft tumor cells, combination",[3]; [7],increased the sub-G1 population
same,change in cell cycle distribution of cultured MIAPaCa2 xenograft tumor cells,"[3]; CBP501 alone, 10 μM for 3 hours, then cultured 24 to 48 hours",cell cycle distribution was not significantly altered
same,"cell death in the population of tumor cells by direct observation of cell morphology, combination",[3]; CBP501 combined with cisplatin,dramatic increase in cell death
same,"anti-cancer effect in vitro, human cancerous cells in culture, combination",[3]; CBP501 combined with cisplatin (summary of Example 3),more pronounced anti-cancer effect
same,"anti-cancer efficacy in vitro, human cancerous cells in culture",[3],some anti-cancer efficacy
same,"xenograft tumor growth, combination","[4]; CBP501 (30, 60 or 120 mg/m^2) combined with cisplatin 3 mg/kg, intraperitoneal, two times each week for two weeks",more effective than either compound alone; also recorded: significant inhibition of xenograft tumor growth
same,xenograft tumor growth,"[4]; CBP501 alone, 120 mg/m^2 intraperitoneal, two times each week for two weeks (day 1, 5, 8, 12)",little or no effect on tumor growth; also recorded: did not significantly inhibit xenograft tumor growth
